Results on two molecules are retold here after patent publication US8648117B2, “Methods and compositions for treating cancer metastasis” (Golden Biotechnology Corporation, priority 2012, dated 2014).

For data set [1], the system named is MDA-MB-231SA-GFP6 human breast cancer cells. As to the kind of experiment: Breast cancer bone metastasis model (intracardiac inoculation, 25-day study, preventive setting). The data set is classed as in vivo. The source says: The objective of this study was to test the efficacy of three different doses of the exemplary compound 1 (Antroquinonol) from Example 1 on breast cancer bone metastases in female athymic nude mice in a 25-day study in preventive setting. The following 5 experimental groups were included in the study:
The vehicle was corn oil. All groups included 15 mice that are 5 weeks of age at the beginning of the study. Based on the body weights the animals were randomized to five groups. On day 0, the animals were given intracardiac inoculation of human breast cancer cells. Body weights were determined twice a week. At sacrifice, the osteolytic lesions and whole body tumor burden were quantified by x-ray and fluorescence imaging, respectively. The test compound and vehicle were administered by oral gavage twice a day. Blood samples for analysing TRACP 5b were collected at days 0, 17 and 24. The animals were sacrificed at day 25, or earlier if they became moribund. Tissue samples were collected for histology and embedded in paraffin from left and right tibia and femur for possible future histomorphometric analyses. Gross necropsy was performed to all animals at the end of the study, and all macroscopic signs were recorded.
(§1) Test compound 1 (99%, 1005 mg/ml) was obtained in liquid form. Three 50× stock solutions were prepared in corn oil (75 mg/ml, 150 mg/ml and 225 mg/ml) and stored them in dark at +4° C. The dosing solutions of 1.5, 3.0 and 4.5 mg/ml were prepared from the stock solutions by diluting the stock solutions in corn oil 1:50. The dosing solutions were prepared once a week and stored in dark at +4° C. The dosing volume was 10 ml/kg. The test compound was administered by oral gavage twice a day with dosing intervals of 10+14 hours. The dosings were performed at the same time every day.
Zoledronic acid was used as a reference compound. 100 μl of Zometa® (Novartis Pharma GmbH, Nürnberg, Germany) 4 mg/5 ml infusion concentrate was diluted in 3.9 ml of sterile saline (0.9% NaCl) to obtain the administration concentration of 0.02 mg/ml. This solution was prepared once during the study and stored at +4° C. The dosing volume was 5 ml/kg, resulting in the dose of 0.1 mg/kg. The reference compound was administered SC twice in the study: at days 1 and 14.
Female athymic nude mice (Hsd: Athymic nude-nu) were obtained from Harlan Laboratories B.V. (Horst, The Netherlands). MDA-MB-231SA-GFP6 human breast cancer cells were received originally from Prof. Theresa Guise (Indiana University, Indianapolis, Ind., USA) and transfected with pTurboGFP-N vector (Evrogen JSC, Moscow, Russia).
This experiment utilized an animal model that closely resembles the characteristics of breast cancer metastatic disease or condition in humans. This model can be effectively used for testing the effects of cancer drug candidates on the metastasis of breast cancer cells to bone. In this model, human breast cancer cells are inoculated into the left cardiac ventricle of 5 weeks old female athymic nude mice. This mouse strain is immunodeficient, allowing rapid spreading of the human cancer cells. Within two weeks after the inoculation, the animals develop osteolytic bone metastases that can be visualized by X-ray radiography. In addition, soft tissue metastases are observed in approximately 40% of the animals, especially in adrenal glands. At 3 weeks, the bone metastases are clearly visible in X-ray radiographs and the animals have developed cachexia and lost weight substantially. The animals are sacrificed typically at 3-4 weeks after inoculation, and their hindlegs are collected for further histomorphometric analysis.
Female Athymic nude mice (Hsd: Athymic nude-nu, obtained from Harlan, The Netherlands) were used for this study. The age of the animals was 5 weeks, and their body weights were approximately 16-22 g at the beginning of the study. The mice were specific pathogen free (SPF) and isolator-reared animals. […]

The test system of data set [2] is PC-3 human prostate cancer cells. As to the kind of experiment: Prostate cancer bone metastasis model (intratibial inoculation, 5-week study, preventive setting). Format: in vivo, male athymic nude mice. The arrangement: Fractures / Osteoblastic lesions: unit not given here. The conditions noted are these: for Significance (Fractures) / Significance (Osteoblastic lesions): vs control; for Fractures / Osteoblastic lesions: x-ray, qualitative (yes or no).
From the text: The objective of this study was to test the efficacy of three different doses of the test compound 1 on prostate cancer bone metastases in male athymic nude mice in a 5-week study in preventive setting. The following 5 experimental groups were included in the study:
The vehicle was corn oil. All groups included 15 mice that were 7 weeks of age at the beginning of the study. Based on the body weights the animals were randomized to five groups. On day 0, the animals were given an intratibial inoculation of human prostate cancer cells. Body weights were determined twice a week. The development of osteoblastic and osteolytic lesions were followed by x-ray. The test compound and vehicle were administered by oral gavage twice a day. The animals were sacrificed at day 35. Tissue samples were collected for histology and embedded in paraffin from left and right tibia and femur for possible future histomorphometric analyses. Gross necropsy was performed to all animals at the end of the study, and all macroscopic signs were recorded.
as §1, with “compound 1 (99.85%, specific density: 1.005) was obtained” for “compound 1 (99%, 1005 mg/ml) was obtained”, “dosings were started at day 1 and performed at” for “dosings were performed at”
Zoledronic acid was used as a reference compound. […] of Zometa® (Novartis Pharma GmbH, Nürnberg, Germany) 4 mg/5 ml infusion concentrate was diluted in 3.9 ml of sterile saline (0.9% NaCl) to obtain the administration concentration of 0.02 mg/ml. This solution was prepared once during the study and stored at +4° C. The dosing volume was 5 ml/kg, resulting in the dose of 0.1 mg/kg. The reference compound was administered SC twice in the study: at days 1 and 14.
Male athymic nude mice (Hsd: Athymic nude-nu, obtained from Harlan, The Netherlands) and PC-3 human prostate cancer cells (ATCC) were used for this study.
In this model, human prostate cancer cells are inoculated into the left proximal tibia of 5-7 week old male athymic nude mice. This mouse strain is immunodeficient, allowing rapid spreading of the human cancer cells. The bone lesions are mixed, being mainly osteolytic but also containing an osteoblastic component. Within four weeks after the inoculation part of the animals have already developed some bone lesions, that can be visualized by X-ray radiography. At 7 weeks, the bone metastases are clearly visible. The animals are sacrificed at 7-8 weeks after inoculation, and their bones are collected for further histomorphometric analysis.
Male athymic nude mice (Hsd: Athymic nude-nu, obtained from Harlan, The Netherlands) were used for this study. The age of the animals was 7 weeks, and their body weights were approximately 18-25 g at the beginning of the study. The mice were specific pathogen free (SPF) and isolator-reared animals. Correct age and good clinical health were qualifications for the study. The minimum quarantine and acclimatization period for the mice was 7 days. Allocation to groups was performed by randomization procedure based on body weight. The animals were marked with tail and ear marks. The mice were housed in Scantainer®, 5 mice per cage. In case of fighting, some of the animals had to be isolated. For intratibial inoculations the mice were anesthetized with i.p. injections of Xylazin (5-6 mg/kg) and Ketamine (92-109 mg/kg). For x-ray imaging the mice were anesthetized with inhalation of isoflurane. […]

The mark [3] stands for this setting: Day 28, 0.1 mg/kg sc days 1 and 14.
[4] abbreviates: Sacrifice, 0.1 mg/kg sc days 1 and 14.

As for `COC1=C(OC)C(O)C(C/C=C(\C)CC/C=C(\C)CCC=C(C)C)C(C)C1=O` (stereo not drawn) [Compound 1, 4-hydroxy-2,3-dimethoxy-6-methyl-5-(3,7,11-trimethyldodeca-2,6,10-trienyl)cyclohex-2-enone], the Cachectic % in data set [1] (30 mg/kg/d po) was found to be 21.4%; in data set [1] (60 mg/kg/d po), 16.7%; in data set [1] (90 mg/kg/d po) it was 20%. Also, the Paraplegic % in data set [1] (30 mg/kg/d po) is recorded as 57.1%; in data set [1] (60 mg/kg/d po), 8.3%; in data set [1] (90 mg/kg/d po) it was 20.0%. Further, in data set [1] (higher doses (60 and 90 mg/kg/d)), the intraosseous tumor area result is recorded as “no effect”. The “body weight at sacrifice” value in data set [1] (mouse, in vivo, 90 mg/kg/day) is “increased”. The “maximum weight obtained during the study” value in data set [1] (mouse, in vivo, 90 mg/kg/day) is “increased”. In addition, the “Significance (Fractures)” value in data set [2] (Day 28, 30 mg/kg/d po) is on record as “* (One asterisk (*) indicates a statistical significance with p-value<0.05)”; in data set [2] (Day 28, 60 mg/kg/d po), “* (One asterisk (*) indicates a statistical significance with p-value<0.05)”; in data set [2] (Sacrifice, 30 mg/kg/d po), “* (One asterisk (*) indicates a statistical significance with p-value<0.05)”; in data set [2] (Sacrifice, 60 mg/kg/d po), “* (One asterisk (*) indicates a statistical significance with p-value<0.05)”. The Fractures in data set [2] (Day 28, 30 mg/kg/d po) amounted to 0.0; in data set [2] (Day 28, 60 mg/kg/d po), 0.0; in data set [2] (Day 28, 90 mg/kg/d po), 36.4; in data set [2] (Sacrifice, 30 mg/kg/d po), 21.4; in data set [2] (Sacrifice, 60 mg/kg/d po) it was 21.4; in data set [2] (Sacrifice, 90 mg/kg/d po), 36.4. The Osteoblastic lesions stood at 0.0 in data set [2] (Day 28, 30 mg/kg/d po); 0.0 in data set [2] (Day 28, 60 mg/kg/d po); 9.1 in data set [2] (Day 28, 90 mg/kg/d po); 35.7 in data set [2] (Sacrifice, 30 mg/kg/d po); 21.4 in data set [2] (Sacrifice, 60 mg/kg/d po); 45.5 in data set [2] (Sacrifice, 90 mg/kg/d po). Also, the “Significance (Osteoblastic lesions)” value in data set [2] (Sacrifice, 60 mg/kg/d po) was “* (One asterisk (*) indicates a statistical significance with p-value<0.05)”. For the same molecule, the “osteoclast number at tumor-bone interface” value in data set [2] (all doses) was “no effect”. For the same molecule, in data set [2] (dose 60 mg/kg/d), the total tumor area entry was “no effect”. Further, in data set [2] (mouse, in vivo, 60 mg/kg/day), the “maximum body weight obtained” value is given as “increased”.
As for `O=P(O)(O)C(O)(Cn1ccnc1)P(=O)(O)O` [Zoledronic acid, reference compound], in data set [1] (0.1 mg/kg sc days 1 and 14), the Cachectic % came out at 11.1%, the Paraplegic % was 22.2%, the body weight result is given as “no effect” and the intraosseous tumor area entry is on record as “no effect”. Further, in data set [1] (0.1 mg/kg sc days 1 and 14), the “whole body tumor burden” value is reported as “no effect”. Also, in data set [2] (0.1 mg/kg sc days 1 and 14), the body weight result was “no effect”. In data set [2] (setting [3]), the “Significance (Fractures)” value is “* (One asterisk (*) indicates a statistical significance with p-value<0.05)”, the Fractures is reported as 0.0 and the Osteoblastic lesions is listed as 0.0. Moreover, in data set [2] (setting [4]), the “Significance (Fractures)” value is given as “*** (three asterisks (***) a statistical significance with p-value<0.001)”, the “Significance (Osteoblastic lesions)” value was “*** (three asterisks (***) a statistical significance with p-value<0.001)”, the Fractures is 0.0 and the Osteoblastic lesions is on record as 0.0.
